Source: patent US20260240761A1, “ORAL FILM UNIT DOSAGE FORM” (SWIPP AB, priority 2023, published 2026)
Where a name gives a salt, the structure may show the parent alone.

Experiments:
[1] = Solvent screening: solubility of midazolam hydrochloride in process solvents; assay type: physicochemical
Method: For each solvent, four test tubes were prepared, containing about 1 g solvent and midazolam hydrochloride at amounts of about 0.1 wt %, 1 wt %, 4 wt % and 7 wt %, respectively. The tubes were thoroughly mixed and were then visually observed and photographed. After 15 minutes of resting, they were again visually observed and photographed, and were then mixed again. After another 1 hour, they were finally visually observed and photographed. It was noted whether there were any undissolved solid material remaining, approximately how much, and whether it had sedimented at the bottom or formed a whitish suspension, and if that suspension was translucent or opaque. No analytical method, e.g., HPLC Assay, was used to actually quantify the precise solubilities because the main aim was just to determine whether the midazolam hydrochloride was predominately dissolved or solid, at 4 wt % and 7 wt % respectively, which represent typical levels for the midazolam hydrochloride content in a wet mix. If midazolam hydrochloride was predominately […] at 7 wt %, the solvent was deemed to be potentially very feasible.

[2] = XRPD of sedimented material from the solvent screening; assay type: physicochemical; conditions: solvent evaporated at ambient temperature
Method: Test tubes prepared with ethanol and ethyl acetate, respectively, corresponding to the last step in Example 14, were prepared and allowed to sediment overnight. The solvents in each sample of sedimented material were slowly evaporated off at ambient temperature and atmospheric pressure. It was then subjected to the XRPD method described in Example 12 except that only steps 1-2 of that method were performed, and that the reference “API raw material” recorded in step 1 was midazolam hydrochloride and not midazolam base.

Compound: Cc1ncc2n1-c1ccc(Cl)cc1C(c1ccccc1F)=NC2 [midazolam hydrochloride]
- Visual appearance at last observation ([1]; 1-pentanol, 0.1 wt %): clear
- Visual appearance at last observation ([1]; 1-pentanol, 1 wt %): translucent
- Visual appearance at last observation ([1]; 1-pentanol, 4 wt %): opaque
- Visual appearance at last observation ([1]; 1-pentanol, 7 wt %): opaque
- Visual appearance at last observation ([1]; 2-propanol, 0.1 wt %): clear
- Visual appearance at last observation ([1]; 2-propanol, 1 wt %): translucent
- Visual appearance at last observation ([1]; 2-propanol, 4 wt %): opaque
- Visual appearance at last observation ([1]; 2-propanol, 7 wt %): opaque
- Visual appearance at last observation ([1]; acetone, 0.1, 1, 4 and 7 wt %): clear supernatant over sedimented
- Visual appearance at last observation ([1]; ethanol, 0.1 wt %): clear
- Visual appearance at last observation ([1]; ethanol, 1 wt %): clear
- Visual appearance at last observation ([1]; ethanol, 4 wt %): opaque
- Visual appearance at last observation ([1]; ethanol, 7 wt %): opaque
- Visual appearance at last observation ([1]; ethyl acetate, 0.1 wt %): cloudy
- Visual appearance at last observation ([1]; ethyl acetate, 1 wt %): opaque
- Visual appearance at last observation ([1]; ethyl acetate, 4 wt %): opaque
- Visual appearance at last observation ([1]; ethyl acetate, 7 wt %): opaque
- Solubility (tentative interpretation) ([1]; in 1-pentanol): Solubility is between 0.1-1 wt %
- Solubility (tentative interpretation) ([1]; in 2-propanol): Solubility is between 0.1-1 wt %
- Solubility (tentative interpretation) ([1]; in acetone): Solubility is ≤0.1 wt %. Solvent
- Solubility (tentative interpretation) ([1]; in ethanol): Solubility is between 1-4 wt %.
- Solubility (tentative interpretation) ([1]; in ethyl acetate): Solubility is ≤0.1 wt %. Solvent
- Solubility (tentative interpretation) ([1]; in isobutyl acetate): Solubility is ≤0.1 wt %. Solvent
- Solubility (tentative interpretation) ([1]; in methyl acetate): Solubility is ≤0.1 wt %. Solvent
- Visual appearance at last observation ([1]; isobutyl acetate, 0.1 wt %): cloudy
- Visual appearance at last observation ([1]; isobutyl acetate, 1 wt %): opaque
- Visual appearance at last observation ([1]; isobutyl acetate, 4 wt %): opaque
- Visual appearance at last observation ([1]; isobutyl acetate, 7 wt %): opaque
- Visual appearance at last observation ([1]; methyl acetate, 0.1 wt %): cloudy
- Visual appearance at last observation ([1]; methyl acetate, 1 wt %): opaque
- Visual appearance at last observation ([1]; methyl acetate, 4 wt %): opaque
- Visual appearance at last observation ([1]; methyl acetate, 7 wt %): opaque
- XRPD identity of sedimented material ([2]; sediment from ethanol): a solid crystalline material that was not midazolam hydrochloride
- XRPD identity of sedimented material ([2]; sediment from ethyl acetate): appeared to be identical to midazolam hydrochloride
